Experimental data as given in patent US20020137929A1, “1 - (3-heterocyclylphenyl) isothiourea, -isourea, -guanidine and -amidine herbicidal agents” (Intellectual Property Department, BASF Aktiengesellschaft, priority 1998, published 2002).

What was measured:
AMBEL (Ragweed, Common) = test: Postemergence herbicidal evaluation; format: in vivo, Ambrosia artemisifolia; details: postemergence
Outline: (§1)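 First, seedlings were raised for around two weeks. Next, test material in 50/50 acetone/water containing 0.5% TWEEN 20 was sprayed through a nozzle at 40 psi, equivalent to about 0.0156–0.500 kg/ha. Finally, after 4–5 weeks in the greenhouse, plants were rated 0–9.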

CASOB (Sicklepod) [1] = test: Postemergence herbicidal evaluation; format: in vivo, Cassia obtusifolia; details: postemergence
Outline: as §1

GALAP (Galium) = test: Postemergence herbicidal evaluation; format: in vivo, Galium aparine; details: postemergence
Outline: as §1

[2] = tested on: IPOHE (Morningglory, Ivyleaf); test: Postemergence herbicidal evaluation; format: in vivo, Ipomoea hederacea; details: postemergence
Outline: as §1

ABUTH (Velvetleaf) = test: Preemergence herbicidal evaluation; format: in vivo, Abutilon theophrasti; details: rated 4-5 weeks after treatment
Outline: (§2)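 Sown cups got a single aqueous acetone spray of test compound (roughly 0.0156–0.500 kg/ha) before seedlings emerged. Evaluation, 4–5 weeks on, used a 0–9 visual scale covering plant stand, vigor, size, malformation, chlorosis and general appearance compared with controls.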

CASOB (Sicklepod) [3] = test: Preemergence herbicidal evaluation; format: in vivo, Cassia obtusifolia; details: rated 4-5 weeks after treatment
Outline: as §2

[4] = tested on: IPOHE (Morningglory, Ivyleaf); test: Preemergence herbicidal evaluation; format: in vivo, Ipomoea hederacea; details: rated 4-5 weeks after treatment
Outline: as §2

ECHCG (Barnyardgrass) = test: Preemergence herbicidal evaluation; format: in vivo, Echinochloa crus-galli; details: rated 4-5 weeks after treatment
Outline: as §2

[5] = tested on: GLXMAW (Soybean, Williams); test: Preemergence herbicidal evaluation; format: in vivo, Glycine max, (L.) Merr. cv Williams; details: rated 4-5 weeks after treatment
Outline: as §2

[6] = tested on: TRZAWR (Wheat, Winter, cv Riband); test: Preemergence herbicidal evaluation; format: in vivo, Triticum aestivum; details: rated 4-5 weeks after treatment
Outline: as §2

ZEAMX (Corn, Field) = test: Preemergence herbicidal evaluation; format: in vivo, Zea mays; details: rated 4-5 weeks after treatment
Outline: as §2

MOOVA (Monochoria) = test: Preemergence weed control under flooded paddy conditions; format: in vivo, Monochoria vaginalis; details: rated 3-4 weeks after treatment
Outline: (§3)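 Ratings on a 0-9 visual scale cover stand, vigor, malformation, size, chlorosis and overall appearance relative to a control, taken three to four weeks post-treatment. Application was into flood water over freshly sown silt loam at roughly 0.0313 to 0.500 kg/ha.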

[7] = tested on: SAGPY (Arrowhead (Pygmaea)); test: as above; format: in vivo, Sagittaria pygmaea; details: rated 3-4 weeks after treatment
Outline: as §3

CYPIR (Rice Flatsedge) = test: Postemergence weed control under flooded paddy conditions; format: in vivo, Cyperus iria; details: postemergence weeds, 3-4 weeks after treatment
Outline: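 Flood-water application, about 0.0313–0.500 kg/ha a.i. in aqueous/acetone 50/50 v/v; water depth 1.5–3 cm throughout. Weeds 3–5 cm, rice 1.5–2.5 leaf. Greenhouse; 0–9 visual rating vs control at 3–4 wk.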

CCOC(=O)CN1C(=O)C(CC(=O)O)S/C1=N/c1cc(-n2c(=O)cc(C(F)(F)F)n(C)c2=O)c(F)cc1Cl (stereo not shown) [Compound 16]
AMBEL herbicidal rating (AMBEL (Ragweed, Common); rate 0.0157 kg/ha): 9.0 | AMBEL herbicidal rating (AMBEL (Ragweed, Common); rate 0.0313 kg/ha): 8.0 | AMBEL herbicidal rating (AMBEL (Ragweed, Common); rate 0.0625 kg/ha): 9.0 | AMBEL herbicidal rating (AMBEL (Ragweed, Common); rate 0.1250 kg/ha): 9.0 | AMBEL herbicidal rating (AMBEL (Ragweed, Common); rate 0.2500 kg/ha): 9.0 | CASOB herbicidal rating (CASOB (Sicklepod) [1]; rate 0.0157 kg/ha): 9.0 | CASOB herbicidal rating (CASOB (Sicklepod) [1]; rate 0.0313 kg/ha): 6.2 | CASOB herbicidal rating (CASOB (Sicklepod) [1]; rate 0.0625 kg/ha): 8.0 | CASOB herbicidal rating (CASOB (Sicklepod) [1]; rate 0.1250 kg/ha): 9.0 | CASOB herbicidal rating (CASOB (Sicklepod) [1]; rate 0.2500 kg/ha): 9.0 | GALAP herbicidal rating (GALAP (Galium); rate 0.0157 kg/ha): 5.0 | GALAP herbicidal rating (GALAP (Galium); rate 0.0313 kg/ha): 5.3 | GALAP herbicidal rating (GALAP (Galium); rate 0.0625 kg/ha): 6.8 | GALAP herbicidal rating (GALAP (Galium); rate 0.1250 kg/ha): 8.4 | GALAP herbicidal rating (GALAP (Galium); rate 0.2500 kg/ha): 9.0 | IPOHE herbicidal rating ([2]; rate 0.0157 kg/ha): 9.0 | IPOHE herbicidal rating ([2]; rate 0.0313 kg/ha): 9.0 | IPOHE herbicidal rating ([2]; rate 0.0625 kg/ha): 9.0 | IPOHE herbicidal rating ([2]; rate 0.1250 kg/ha): 9.0 | IPOHE herbicidal rating ([2]; rate 0.2500 kg/ha): 9.0 | ABUTH preemergence herbicidal rating (ABUTH (Velvetleaf); rate 0.0156 kg/ha): 5.6 | ABUTH preemergence herbicidal rating (ABUTH (Velvetleaf); rate 0.0313 kg/ha): 8.1 | ABUTH preemergence herbicidal rating (ABUTH (Velvetleaf); rate 0.0625 kg/ha): 8.8 | ABUTH preemergence herbicidal rating (ABUTH (Velvetleaf); rate 0.1250 kg/ha): 8.9 | ABUTH preemergence herbicidal rating (ABUTH (Velvetleaf); rate 0.2500 kg/ha): 9.0 | ABUTH preemergence herbicidal rating (ABUTH (Velvetleaf); rate 0.5000 kg/ha): 9.0 | CASOB preemergence herbicidal rating (CASOB (Sicklepod) [3]; rate 0.0156 kg/ha): 0.3 | CASOB preemergence herbicidal rating (CASOB (Sicklepod) [3]; rate 0.0313 kg/ha): 0.6 | CASOB preemergence herbicidal rating (CASOB (Sicklepod) [3]; rate 0.0625 kg/ha): 2.7 | CASOB preemergence herbicidal rating (CASOB (Sicklepod) [3]; rate 0.1250 kg/ha): 5.3 | CASOB preemergence herbicidal rating (CASOB (Sicklepod) [3]; rate 0.2500 kg/ha): 8.3 | CASOB preemergence herbicidal rating (CASOB (Sicklepod) [3]; rate 0.5000 kg/ha): 9.0 | IPOHE preemergence herbicidal rating ([4]; rate 0.0156 kg/ha): 0.9 | IPOHE preemergence herbicidal rating ([4]; rate 0.0313 kg/ha): 3.5 | IPOHE preemergence herbicidal rating ([4]; rate 0.0625 kg/ha): 7.6 | IPOHE preemergence herbicidal rating ([4]; rate 0.1250 kg/ha): 8.7 | IPOHE preemergence herbicidal rating ([4]; rate 0.2500 kg/ha): 9.0 | IPOHE preemergence herbicidal rating ([4]; rate 0.5000 kg/ha): 9.0 | ECHCG preemergence herbicidal rating (ECHCG (Barnyardgrass); rate 0.0156 kg/ha): 0.0 | ECHCG preemergence herbicidal rating (ECHCG (Barnyardgrass); rate 0.0313 kg/ha): 0.3 | ECHCG preemergence herbicidal rating (ECHCG (Barnyardgrass); rate 0.0625 kg/ha): 0.6 | ECHCG preemergence herbicidal rating (ECHCG (Barnyardgrass); rate 0.1250 kg/ha): 1.8 | ECHCG preemergence herbicidal rating (ECHCG (Barnyardgrass); rate 0.2500 kg/ha): 4.4 | ECHCG preemergence herbicidal rating (ECHCG (Barnyardgrass); rate 0.5000 kg/ha): 7.1 | GLXMAW preemergence herbicidal rating ([5]; rate 0.0156 kg/ha): 0.5 | GLXMAW preemergence herbicidal rating ([5]; rate 0.0313 kg/ha): 0.7 | GLXMAW preemergence herbicidal rating ([5]; rate 0.0625 kg/ha): 1.5 | GLXMAW preemergence herbicidal rating ([5]; rate 0.1250 kg/ha): 4.5 | GLXMAW preemergence herbicidal rating ([5]; rate 0.2500 kg/ha): 7.7 | GLXMAW preemergence herbicidal rating ([5]; rate 0.5000 kg/ha): 9.0 | TRZAWR preemergence herbicidal rating ([6]; rate 0.0156 kg/ha): 0.1 | TRZAWR preemergence herbicidal rating ([6]; rate 0.0313 kg/ha): 0.5 | TRZAWR preemergence herbicidal rating ([6]; rate 0.0625 kg/ha): 0.5 | TRZAWR preemergence herbicidal rating ([6]; rate 0.1250 kg/ha): 0.8 | TRZAWR preemergence herbicidal rating ([6]; rate 0.2500 kg/ha): 2.6 | TRZAWR preemergence herbicidal rating ([6]; rate 0.5000 kg/ha): 5.8 | ZEAMX preemergence herbicidal rating (ZEAMX (Corn, Field); rate 0.0156 kg/ha): 0.1 | ZEAMX preemergence herbicidal rating (ZEAMX (Corn, Field); rate 0.0313 kg/ha): 0.6 | ZEAMX preemergence herbicidal rating (ZEAMX (Corn, Field); rate 0.0625 kg/ha): 1.4 | ZEAMX preemergence herbicidal rating (ZEAMX (Corn, Field); rate 0.1250 kg/ha): 1.8 | ZEAMX preemergence herbicidal rating (ZEAMX (Corn, Field); rate 0.2500 kg/ha): 3.7 | ZEAMX preemergence herbicidal rating (ZEAMX (Corn, Field); rate 0.5000 kg/ha): 6.0 | Herbicidal rating MOOVA (MOOVA (Monochoria); 0.0313 kg/ha): 9.0 | Herbicidal rating MOOVA (MOOVA (Monochoria); 0.0625 kg/ha): 9.0 | Herbicidal rating MOOVA (MOOVA (Monochoria); 0.1250 kg/ha): 9.0 | Herbicidal rating MOOVA (MOOVA (Monochoria); 0.2500 kg/ha): 3.0 | Herbicidal rating SAGPY ([7]; 0.0313 kg/ha): 0.0 | Herbicidal rating SAGPY ([7]; 0.0625 kg/ha): 0.0 | Herbicidal rating SAGPY ([7]; 0.1250 kg/ha): 0.0 | Herbicidal rating SAGPY ([7]; 0.2500 kg/ha): 0.0 | Herbicidal rating CYPIR (CYPIR (Rice Flatsedge); rate 0.0313 kg/ha): 0.0 | Herbicidal rating CYPIR (CYPIR (Rice Flatsedge); rate 0.0625 kg/ha): 0.0 | Herbicidal rating CYPIR (CYPIR (Rice Flatsedge); rate 0.1250 kg/ha): 4.0 | Herbicidal rating CYPIR (CYPIR (Rice Flatsedge); rate 0.2500 kg/ha): 9.0

CCOC(=O)CN1C(=O)C(=Cc2ccccc2)SC1=Nc1cc(-n2c(=O)cc(C(F)(F)F)n(C)c2=O)c(F)cc1Cl [Compound 19, Ethyl 5-benzylidene-2-{{2-chloro-5-[3,6-dihydro-3-methyl-2,6-dioxo-4-(trifluoromethyl)-1(2H)-pyrimidinyl]-4-fluorophenyl}imino}-4-oxo-3-thiazolidineacetate]
AMBEL herbicidal rating (AMBEL (Ragweed, Common); rate 0.0158 kg/ha): 3.0 | AMBEL herbicidal rating (AMBEL (Ragweed, Common); rate 0.0315 kg/ha): 3.0 | AMBEL herbicidal rating (AMBEL (Ragweed, Common); rate 0.0630 kg/ha): 7.0 | CASOB herbicidal rating (CASOB (Sicklepod) [1]; rate 0.0158 kg/ha): 0.0 | CASOB herbicidal rating (CASOB (Sicklepod) [1]; rate 0.0315 kg/ha): 1.0 | CASOB herbicidal rating (CASOB (Sicklepod) [1]; rate 0.0630 kg/ha): 1.0 | GALAP herbicidal rating (GALAP (Galium); rate 0.0158 kg/ha): 2.0 | GALAP herbicidal rating (GALAP (Galium); rate 0.0315 kg/ha): 3.0 | GALAP herbicidal rating (GALAP (Galium); rate 0.0630 kg/ha): 3.0 | IPOHE herbicidal rating ([2]; rate 0.0158 kg/ha): 2.0 | IPOHE herbicidal rating ([2]; rate 0.0315 kg/ha): 9.0 | IPOHE herbicidal rating ([2]; rate 0.0630 kg/ha): 5.0 | ABUTH preemergence herbicidal rating (ABUTH (Velvetleaf); rate 0.1250 kg/ha): 9.0 | ABUTH preemergence herbicidal rating (ABUTH (Velvetleaf); rate 0.2500 kg/ha): 9.0 | CASOB preemergence herbicidal rating (CASOB (Sicklepod) [3]; rate 0.1250 kg/ha): 0.0 | CASOB preemergence herbicidal rating (CASOB (Sicklepod) [3]; rate 0.2500 kg/ha): 0.0 | IPOHE preemergence herbicidal rating ([4]; rate 0.1250 kg/ha): 0.0 | IPOHE preemergence herbicidal rating ([4]; rate 0.2500 kg/ha): 0.0 | ECHCG preemergence herbicidal rating (ECHCG (Barnyardgrass); rate 0.1250 kg/ha): 0.0 | ECHCG preemergence herbicidal rating (ECHCG (Barnyardgrass); rate 0.2500 kg/ha): 0.0 | GLXMAW preemergence herbicidal rating ([5]; rate 0.1250 kg/ha): 0.0 | GLXMAW preemergence herbicidal rating ([5]; rate 0.2500 kg/ha): 0.0 | TRZAWR preemergence herbicidal rating ([6]; rate 0.1250 kg/ha): 0.0 | TRZAWR preemergence herbicidal rating ([6]; rate 0.2500 kg/ha): 0.0 | ZEAMX preemergence herbicidal rating (ZEAMX (Corn, Field); rate 0.1250 kg/ha): 0.0 | ZEAMX preemergence herbicidal rating (ZEAMX (Corn, Field); rate 0.2500 kg/ha): 0.0 | Herbicidal rating MOOVA (MOOVA (Monochoria); 0.1160 kg/ha): 9.0 | Herbicidal rating MOOVA (MOOVA (Monochoria); 0.2310 kg/ha): 9.0 | Herbicidal rating MOOVA (MOOVA (Monochoria); 0.4630 kg/ha): 9.0 | Herbicidal rating SAGPY ([7]; 0.1160 kg/ha): 0.0 | Herbicidal rating SAGPY ([7]; 0.2310 kg/ha): 3.0 | Herbicidal rating SAGPY ([7]; 0.4630 kg/ha): 3.0 | Herbicidal rating CYPIR (CYPIR (Rice Flatsedge); rate 0.1160 kg/ha): 0.0 | Herbicidal rating CYPIR (CYPIR (Rice Flatsedge); rate 0.2310 kg/ha): 0.0 | Herbicidal rating CYPIR (CYPIR (Rice Flatsedge); rate 0.4630 kg/ha): 0.0
